A short description of data set [1]: MTT cell viability assay, Caco-2. To be noted: human. As for the experimental part:
(§1) To evaluate the anticancer potential of monomethine cyanine dyes 1–12, a cell proliferation study was conducted using the 3-(4,5-dimethylthiazol-2-yl)-2,5-diphenyltetrazolium bromide (MTT) assay. For this preliminary evaluation, a concentration of 10 µM for each dye was tested, with the well-established chemotherapy agent 5-fluorouracil (5-FU) serving as a positive control. The assay included normal human dermal fibroblasts (NHDF) as non-tumor cells, alongside tumor cell lines from colorectal (Caco-2), prostate (PC-3), and breast (MCF-7) adenocarcinomas.
(§2) The cell lines used in this study (Caco-2, MCF-7, PC-3, and NHDF) were obtained from the American Type Culture Collection (ATCC, Manassas, VA, USA) and cultured in 75 cm^2 culture flasks at 37 °C in a humidified atmosphere with 5% CO2 in a LEEC Culture Safe Precision CO2 Incubator. PC-3 cells were grown in Roswell Park Memorial Institute (RPMI) medium supplemented with 10% of inactivated Fetal Bovine Serum (FBS) and 1% of an antibiotic mixture (Sp; 10,000 U/mL of penicillin G and […] of streptomycin). MCF-7 and Caco-2 cell lines were both cultured using Dulbecco’s Modified Eagle Medium (DMEM). However, the medium for MCF-7 cells was complemented with 10% of inactivated FBS and 1% of antibiotic/antimycotic mixture (Ab; 10,000 U/mL of penicillin G, […] of streptomycin and 25 µg/mL of amphotericin B), and the medium for Caco-2 cells was supplemented with 20% of inactivated FBS and 1% of Sp. Finally, RPMI medium supplemented with 10% FBS, 2 mM of L-glutamine, 10 mM of 4-(2-hydroxyethyl)-1-piperazineethanesulfonic acid (HEPES), 1 mM of sodium pyruvate, and 1% of Ab was used to culture NHDF cells. The culture media were renewed every two to three days until near confluence was achieved. Then, cells were detached using a solution of 0.125 g/L of trypsin and 0.02 g/L of ethylenediaminetetracetic acid (EDTA), counted by the trypan blue method, resuspended, and adequately seeded to continue the culture in 75 cm^2 flasks or for the experiments described below. All manipulations were performed in a Labculture Class II A2 Biological Safety Cabinet.
(§3) After trypsinization, cells were seeded in 96-well culture plates (100 µL; 2 × 10^4 cells/mL), and after 48 h (for adherence), they were incubated with the compounds under study in the absence of light for a duration of 72 h. Then, the medium was removed, and fresh incomplete culture medium (without FBS and Ab or Sp) and MTT solution [5 mg/mL in phosphate buffer saline (PBS)] were added to each well, followed by 4 h of incubation. After this, the medium containing MTT was removed and DMSO was added to dissolve formazan crystals. The absorbance of each well at 570 nm was determined using a microplate spectrophotometer Bio-Rad (Hercules, CA, USA) xMark. Untreated cells were considered the negative control, and 5-FU, a clinically used drug, was considered the positive control. For data analysis, the relative cell proliferation relative to the negative control cells was calculated. For each cell viability study, at least two independent assays in quadruplicate were performed. Increasing concentrations of the compounds between 0.001 and 100 μM were used to determine the IC50 values.
Background: Formazan colour is commonly taken as a measure of viable cells.

Data set [2] concerns Caco-2 colorectal adenocarcinoma cells. Nature of the data set: MTT cell viability assay, Caco-2. To be noted: for IC50 / viability at 10 µM: Homo sapiens, Caco-2, 72 h; for IC50: read-out: IC50 Caco-2; for viability at 10 µM: read-out: cell viability percentage in relation to control, Caco-2; for SI Caco-2 (selectivity index, cancer versus non-cancer cell line NHDF): Caco-2 versus NHDF, 72 h. As for the experimental part: as §1, §2, §3

The test system of data set [3] is PC-3 prostate adenocarcinoma cells. Nature of the data set: MTT cell viability assay, PC-3. To be noted: 72 h; for IC50 / viability at 10 µM: Homo sapiens; for viability at 10 µM: read-out: cell viability percentage in relation to control, PC-3; for SI PC-3 (selectivity index versus NHDF): PC-3 versus NHDF. As for the experimental part: as §1, §2, §3
The subject of data set [4] is MCF-7 breast adenocarcinoma cells. Kind of data set: MTT cell viability assay, MCF-7. To be noted: for IC50 / viability at 10 µM: Homo sapiens, MCF7, 72 h; for viability at 10 µM: read-out: cell viability percentage in relation to control, MCF-7; for SI MCF-7 (selectivity index versus NHDF): MCF-7 versus NHDF, 72 h. As for the experimental part: as §1, §2, §3
Data set [5] can be described thus: Photostability assay (absorbance decay under white light). The class given is physicochemical. To be noted: 10 µM in PBS, after 30 min white light irradiation; 436 nm for 5, 439 nm for 10. As for the experimental part:
To further explore this, the photostability of these dyes was tested. […] A gradual linear degradation continued for at least 120 min. This degradation likely explains the decreased cytotoxicity observed in the photocytotoxicity assay.
In a 96-well plate, 100 µL of dyes 5 and 10 at a concentration of 10 µM, prepared from 10 mM DMSO stock solution diluted in PBS, was added at each well. The photostability assay was performed by irradiating the as previously described for photocytotoxicity evaluation, repeated several times up to 120 min. Spectrophotometric readings were taken over the maximum absorption wavelength of each dye (436 nm for 5 and 439 nm for 10). Two independent experiments were performed in quadruplicate, and the obtained absorbance values were normalized.

Data set [6] concerns the target T1, topoisomerase II (Topo II) (Homo sapiens, UniProt P11388).
T1 construct: purchased TopoGEN Inc. (Buena Vista, CO, USA) 1009-1
Nature of the data set: Topoisomerase II inhibitory assay (pRYG DNA relaxation, agarose gel). The class given is biochemical. To be noted: 50 µM, 5.0 units Topo II, 250.0 ng pRYG DNA, mean ± SD of two assays.
Method: To do so, the impact of cyanines on Topo II activity was assessed using a pRYG DNA substrate in the presence and absence of the dyes. This was monitored via a Topo II drug screening kit followed by agarose gel electrophoresis. […] All samples applied to the agarose gel contained 5.0 units of Topo II and 250.0 ng of pRYG DNA as the substrate. Linear pRYG DNA (Lane DNA marker) served as the reference control for the DNA band positions, and 50 µM VP-16 (Lane 3) was used as a positive control. […]
The formation of relaxed DNA products, indicating Topo II activity, is visible in Lane 1 (incubation of pRYG DNA with Topo II) of Figure 8A. […] The intensity of the relaxed DNA bands from two independent experiments was quantified for all samples and normalized to the Topo II activity in the absence of inhibitors (No drug sample, Lane 1) using Image Lab, Version 6.1 (Figure 8B). […]
Cyanine stock solutions in DMSO were further diluted with Tris-HCl (DMSO:Tris-HCl–1:9) to the concentrations desired for assays. […] Electrophoresis was run at 110 V for 40 min and analyzed under ultraviolet (UV) light using a FireReader Imaging System (UVITEC, Cambridge, UK). Band intensities were measured using the software Image Lab, Version 6.1 (BioRad Laboratories, Hercules, CA, USA). […]

Data set [7] deals with Caco-2 cells. Nature of the data set: Fluorescence microscopy (cell penetration, intracellular localization). The class given is cell-based, human. To be noted: Caco-2, 1 µM, 20 h, Hoescht 33342 counterstain. As for the experimental part: The cells were incubated with the dyes for 20 h, followed by fixation and staining with Hoescht 33342, a commonly used cell-permeant nucleic acid stain.
Fluorescence microscopy was used to confirm whether the compounds under study cross the cell membrane, and to understand where they are located within the cell (nucleus and/or cytoplasm). To this end, the procedure previously described in Lima et al. was followed. Hoescht 33342 was used as a specific marker. Cells were seeded in 24-well culture plates containing sterile circular coverslips of 15 mm diameter. After 48 h for cell adhesion, they were incubated with the compounds for 20 h. After this incubation period, the cells were washed three times with PBS and the fixation process was carried out. To do this, the contents of the wells were removed, and a 4% formalin solution was added until the wells were covered, followed by an incubation at room temperature for 15 min. Then, the washing process was repeated three times with PBS, and the cells were then incubated with a solution of Hoescht 33342 (1:500) for 10 min, in the dark and at room temperature. Subsequently, the wells were washed again with PBS and the slides were mounted with permanent mounting medium (Dako) and left to dry in a cool and dry place for 24 h. […]

Data set [8] deals with Caco-2 cells. Nature of the data set: Caco-2 morphological analysis (optical microscopy). To be noted: 72 h.
Method: Sorbitol and 5-FU were used as positive controls, while untreated cells served as the negative control.
Caco-2 cells near confluency were trypsinized, counted, and then seeded at 3 × 10^4 cells/mL (3 mL) in 35 mm cell culture dishes previously treated for tissue culture. After cell adherence (48 h), they were incubated with solutions under study for 72 h in the absence of light. The cellular morphology was verified every 24 h using a CKX41 SF inverted microscope (Olympus, Tokyo, Japan) with 10, 20, or 40× objectives. A DC6 V digital camera (Olympus, Tokyo, Japan) coupled to the microscope was used to capture cell imaging. The morphology of cells in the presence or absence of treatments was compared.
The mark [9] stands for this setting: Caco-2, SI Caco-2 (selectivity index, cancer versus non-cancer cell line NHDF), Caco-2 versus NHDF, 72 h.
[10] abbreviates: read-out: IC50 PC-3, PC-3, 72 h incubation, MTT.
The mark [11] stands for this setting: read-out: IC50 MCF-7, MCF-7, 72 h incubation, MTT.

The record followed here is paper PMC11642940, “A New Demand for Improved Selectivity and Potency of Cyanine Dyes as Antiproliferative Agents Against Colorectal Cancer Cells” (Molecules, 2024).

The term IC50 denotes the midpoint of a concentration-inhibition curve. As a reminder, the viability is a per cent measure of how many cells are alive, often set against a control.

Like-named read-outs stand apart in the source and are kept apart here.

T1 sequence (P11388 whole entry): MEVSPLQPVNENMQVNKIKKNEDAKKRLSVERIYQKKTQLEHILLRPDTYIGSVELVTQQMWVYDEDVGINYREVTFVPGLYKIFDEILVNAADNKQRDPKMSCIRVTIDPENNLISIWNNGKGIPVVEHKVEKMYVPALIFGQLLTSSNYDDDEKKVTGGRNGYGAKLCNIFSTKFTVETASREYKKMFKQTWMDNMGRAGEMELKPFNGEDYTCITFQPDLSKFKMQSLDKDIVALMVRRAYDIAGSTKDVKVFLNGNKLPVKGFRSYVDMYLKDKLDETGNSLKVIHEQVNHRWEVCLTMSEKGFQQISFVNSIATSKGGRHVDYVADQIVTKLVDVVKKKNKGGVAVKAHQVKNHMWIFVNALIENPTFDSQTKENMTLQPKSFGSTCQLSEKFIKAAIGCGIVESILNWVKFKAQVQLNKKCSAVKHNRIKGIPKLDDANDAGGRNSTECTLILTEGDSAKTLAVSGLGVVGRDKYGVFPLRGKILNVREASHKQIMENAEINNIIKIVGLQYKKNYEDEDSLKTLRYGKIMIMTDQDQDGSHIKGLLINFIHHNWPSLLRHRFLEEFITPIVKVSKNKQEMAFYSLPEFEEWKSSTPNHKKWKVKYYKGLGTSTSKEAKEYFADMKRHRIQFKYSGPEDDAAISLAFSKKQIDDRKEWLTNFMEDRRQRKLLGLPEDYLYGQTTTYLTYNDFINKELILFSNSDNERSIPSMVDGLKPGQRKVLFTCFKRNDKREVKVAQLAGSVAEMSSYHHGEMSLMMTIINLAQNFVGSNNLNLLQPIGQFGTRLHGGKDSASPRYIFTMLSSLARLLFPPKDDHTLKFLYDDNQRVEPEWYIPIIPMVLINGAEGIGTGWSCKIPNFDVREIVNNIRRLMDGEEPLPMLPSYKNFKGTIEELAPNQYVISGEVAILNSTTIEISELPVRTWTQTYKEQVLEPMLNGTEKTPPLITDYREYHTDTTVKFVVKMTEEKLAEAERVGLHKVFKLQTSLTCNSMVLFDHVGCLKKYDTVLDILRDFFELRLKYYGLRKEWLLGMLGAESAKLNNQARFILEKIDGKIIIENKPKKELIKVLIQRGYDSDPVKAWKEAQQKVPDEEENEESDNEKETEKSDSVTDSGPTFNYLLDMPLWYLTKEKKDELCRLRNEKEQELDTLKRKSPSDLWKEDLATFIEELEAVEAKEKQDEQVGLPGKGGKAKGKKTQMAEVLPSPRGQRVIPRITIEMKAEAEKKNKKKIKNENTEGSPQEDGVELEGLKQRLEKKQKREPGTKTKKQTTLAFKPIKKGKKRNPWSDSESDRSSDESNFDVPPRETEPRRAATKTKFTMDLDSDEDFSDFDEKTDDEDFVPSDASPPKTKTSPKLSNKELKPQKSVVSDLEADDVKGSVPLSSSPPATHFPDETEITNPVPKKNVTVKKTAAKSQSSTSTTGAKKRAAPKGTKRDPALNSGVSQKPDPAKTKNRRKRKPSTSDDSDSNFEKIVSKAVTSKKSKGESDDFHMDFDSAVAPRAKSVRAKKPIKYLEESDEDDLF

In the case of `O=c1[nH]cc(F)c(=O)[nH]1` [5-FU, 5-fluorouracil, reference compound], the selectivity ratio at 72 h in data set [1] (Caco-2) amounted to 4.1. Further, the IC50 in data set [2] is 1.11 µM; in data set [3] (read-out: IC50 PC-3) it was 2.43 µM; in data set [4] (read-out: IC50 MCF-7), 2.12 µM. Besides, the viability at 10 µM is 30.1 ± 1.24% in data set [2], 20.5 ± 2.3% in data set [3] and 25.3 ± 4.94% in data set [4]. The “SI PC-3 (selectivity index versus NHDF)” value in data set [3] turned out to be 1.9. In data set [4], the “SI MCF-7 (selectivity index versus NHDF)” value came out at 2.1.
Regarding `CN1C(=Cc2oc3ccccc3[n+]2C)C=Cc2ccccc21.Cc1ccc(S(=O)(=O)[O-])cc1` [Dye 5, 3-Methyl-2-((1-methylquinolin-2(1H)-ylidene)methyl)benzo[d]oxazol-3-ium 4-methylbenzenesulfonate], the selectivity ratio at 72 h in data set [1] (setting [9]) came to 278. Further, in data set [2], the “SI Caco-2 (selectivity index, cancer versus non-cancer cell line NHDF)” value was 278.3; the IC50 amounted to 0.01 µM; the viability at 10 µM came out at 5.05 ± 0.19%. Moreover, the IC50 in data set [3] (setting [10]) came to 1.43 µM. Also, in data set [3], the viability at 10 µM was found to be 3.47 ± 0.95% and the “SI PC-3 (selectivity index versus NHDF)” value is listed as 1.9. In addition, in data set [4] (setting [11]), the half-maximal inhibitory concentration (IC50) came out at 3.83 µM. In addition, in data set [4], the viability at 10 µM was found to be 6.34 ± 1.06% and the “SI MCF-7 (selectivity index versus NHDF)” value is given as 0.7. In data set [5], the “reduction in absorbance at maximum wavelength” value is 3.7%. In data set [6], the “relative intensity of relaxed DNA band (normalized to No drug sample)” value is 0.31 ± 0.063. Also, the “cell membrane crossing, intracellular localization and fluorescence” value in data set [7] is “stain a specific organelle within the nucleoplasm but does not localize in the DNA”. For the same molecule, in data set [8] (1 µM), the “morphological changes of Caco-2 cells” value is recorded as “a few apoptotic bodies”.
Turning to `CCN1C(=Cc2sc3cc([N+](=O)[O-])ccc3[n+]2CC)Sc2ccccc21.Cc1ccc(S(=O)(=O)[O-])cc1` [Dye 10, 3-Ethyl-2-((3-ethylbenzo[d]thiazol-2(3H)-ylidene)methyl)-6-nitrobenzo[d]thiazol-3-ium 4-methylbenzenesulfonate], in data set [1] (setting [9]), the selectivity ratio at 72 h was 151. Also, in data set [2], the “SI Caco-2 (selectivity index, cancer versus non-cancer cell line NHDF)” value amounted to 151.4. The IC50 in data set [2] turned out to be 0.14 µM; in data set [3] (setting [10]), 5.93 µM; in data set [4] (setting [11]) it was 13.3 µM. In addition, the figures for the viability at 10 µM in data set [2], in data set [3] and in data set [4] were 18.6 ± 0.65%, 14.4 ± 1.6% and 10.6 ± 6.44%, respectively. Moreover, the “SI PC-3 (selectivity index versus NHDF)” value in data set [3] is given as 3.8. In addition, the “SI MCF-7 (selectivity index versus NHDF)” value in data set [4] is reported as 1.7. The “reduction in absorbance at maximum wavelength” value in data set [5] is 2.5%. For the same molecule, the “relative intensity of relaxed DNA band (normalized to No drug sample)” value in data set [6] stood at 0.65 ± 0.024. Further, the “cell membrane crossing, intracellular localization and fluorescence” value in data set [7] was “significantly lower fluorescence intensity compared to dye 5”. Besides, the “morphological changes of Caco-2 cells” value in data set [8] (10 µM) is “noticeable reduction in the size of Caco-2 cells”.
